In patent publication US11325937B2, “Glycoside compound and preparation method therefor, composition, application, and intermediate” (SHANGHAI HUTCHISON PHARMACEUTICALS LIMITED, priority 2018, dated 2022):
Read-outs that look alike come from different tables or passages of the source.

Test system: VEGF-A mRNA expression in macrophages (RAW264.7)
Assay: In vitro macrophage experiment: activity of compounds to promote VEGF-A mRNA expression (RT-qPCR)
Type: cell-based
Details: Mus musculus, read-out: Expression level of VEGF-A mRNA
Description: 1.1. Specific steps for activity screening: 1-10×10^6 macrophages (RAW264.7) in logarithmic growth phase were transferred to a cell culture plate. The test compounds (Compounds TG-001, TG-002, TG-003, TG-004, TG-005, TG-006, TG-007, TG-008, TG-009, TG-010, TG-011, TG-012, TG-013, TG-014, TG-015, TG-016, TG-017, TG-018, TG-019, TG-020, TG-021, TG-022, TG-023, TG-024, TG-025, TG-026, TG-027, TG-028, TG-029, TG-030, TG-031, TG-032, TG-033, TG-034, TG-035, TG-036, TG-037, TG-045, TG-039, TG-040 TG-041, TG-042, TG-043, TG-044, TG-045, TG-052, TG-053, TG-054, TG-047, TG-048, TG-046, TG-049, TG-050, TG-051, TG-055 and TG-056) were respectively diluted into various concentrations, and separately added to the cell culture plate containing macrophage. The cells were cultured for 3 h in a complete medium (RPMI 1640 medium:fetal bovine serum:tri-resistance screening agent (i.e. penicillin-streptomycin-gentamicin, Beijing Leagene Biotechnology Co., Ltd.)=89:10:1 based on volume) in a cell incubator at 37° C. and 5% CO2. The cells were lyzed by Trizol (Beijing ComWin Biotech Co., Ltd) to extract RNA, and the RNA concentration was measured using a microvolume nucleic acid and protein analyzer (Nanodrop2000c). The required volume V of RNA was calculated according to the RNA concentration, and the RNA reverse transcription reaction system was prepared according to Table 1. Then RNA reverse transcription (cDNA synthesis) (RT Easy™ I (For first-strand cDNA synthesis) Reverse Transcription Kit, Chengdu ForeGene Biotechnology Co., Ltd.) was carried out according to the conditions described in Table 2. The resulting cDNA was used to prepare a fluorescence quantitative PCR reaction solution according to Table 3. The fluorescence quantitative PCR reaction conditions were set according to Table 4, and the fluorescence quantitative PCR reaction (Real time PCR Easy™-SYBR Green Fluorescence Quantification Kit, Chengdu ForeGene Biotechnology Co., Ltd.) was performed using cDNA from the reverse transcription reaction as a template. The relative expression level 2^−ΔΔCt of the target gene was calculated from the Ct value of each sample with the blank control group as a control and β-Actin as an internal reference.
Based on the maximum level of VEGF-A mRNA expression promoted by a drug at a certain concentration, the activity of the drug was determined. The expression level of VEGF-A mRNA in macrophages was defined as 1 when no drug was added. Using a traditional Chinese medicine injection Salvianolate that is used in the treatment of Cardio-cerebrovascular disease and promotes a maximum level of VEGF-A mRNA expression of 6 in macrophages (the results are shown in Table 5) as a judgment standard, the compound promoting a maximum level of VEGF-A mRNA expression of 4 or more in macrophage was a target compound. That is, when the maximum level of VEGF-A mRNA expression in macrophages promoted by the test compound is over 4-fold higher than the expression level of VEGF-A mRNA in macrophages without the addition of the test compound, the test compound was a preliminary target compound promoting angiogenesis.

[1] = 1 μM, RAW264.7 macrophages, 3 h, relative expression 2^-ΔΔCt, no drug = 1
[2] = 0.1 mM, RAW264.7 macrophages, 3 h, relative expression, no drug = 1
[3] = 0.5 mM, RAW264.7 macrophages, 3 h, relative expression, no drug = 1
[4] = 1 mM, RAW264.7 macrophages, 3 h, relative expression, no drug = 1
[5] = 2 mM, RAW264.7 macrophages, 3 h, relative expression, no drug = 1
[6] = 3 mM, RAW264.7 macrophages, 3 h, relative expression, no drug = 1

| Structure (SMILES) | fold induction at 1 µM [1] | fold induction at 100 µM [2] | fold induction at 500 µM [3] | fold induction at 1000 µM [4] | fold induction at 2000 µM [5] | fold induction at 3000 µM [6] | fold induction at 1 µM (RAW264.7, 3 h) | fold induction at 100 µM (RAW264.7, 3 h) | fold induction at 500 µM (RAW264.7, 3 h) | fold induction at 1000 µM (RAW264.7, 3 h) | fold induction at 2000 µM (RAW264.7, 3 h) | fold induction at 3000 µM (RAW264.7, 3 h) |
| --- | --- | --- | --- | --- | --- | --- | --- | --- | --- | --- | --- | --- |
| OC[C@H]1O[C@@H](OCCCCc2ccc(F)cc2)[C@H](O)[C@@H](O)[C@@H]1O [TG-010] | 0.98 | 0.68 | 0.69 | 1.48 | 5.31 | 9.78 |  |  |  |  |  |  |
| OC[C@H]1O[C@@H](OCCCCc2ccc3c(c2)OCO3)[C@H](O)[C@@H](O)[C@@H]1O [TG-008] | 3.34 | 1.38 | 1.42 | 0.61 | 6.28 | 5.46 |  |  |  |  |  |  |
| OC[C@H]1O[C@@H](OCCCCc2ccc(OCc3ccccc3)cc2)[C@H](O)[C@@H](O)[C@@H]1O [TG-013] | 1.44 | 2.51 | 3.98 | 3.3 | 3.23 | 2.44 |  |  |  |  |  |  |
| COc1ccc(CNCCO[C@@H]2O[C@H](CO)[C@@H](O)[C@H](O)[C@H]2O)cc1 [TG-036] |  |  |  |  |  |  | 1.19 | 1.39 | 0.32 | 1.09 | 0.43 | 1.75 |
| COc1cc(CCCCO[C@@H]2O[C@H](CO)[C@@H](O)[C@H](O)[C@H]2O)cc(OC)c1 [TG-002] | 1.71 | 1.68 | 1.88 | 1.21 | 0.44 | 0.73 |  |  |  |  |  |  |
| COc1ccccc1CCCCO[C@@H]1O[C@H](CO)[C@@H](O)[C@H](O)[C@H]1O [TG-001] | 3.68 | 1.65 | 7.89 | 1.91 | 2.36 | 0.68 |  |  |  |  |  |  |
| COc1ccc(CN(CCO[C@@H]2O[C@H](CO)[C@@H](O)[C@H](O)[C@H]2O)C(=O)OC(C)(C)C)cc1 [TG-033] |  |  |  |  |  |  | 0.95 | 1.87 | 38.9 | 3.76 | 0.99 | 0.04 |
| OC[C@H]1O[C@@H](OCCCCc2ccc(OCc3ccc(F)cc3)cc2)[C@H](O)[C@@H](O)[C@@H]1O [TG-051] | 1.1 | 4.49 | 6.76 | 7.89 | 11.2 | 8.18 |  |  |  |  |  |  |
| OC[C@H]1O[C@@H](OCCCCc2ccc(OCc3cccnc3)cc2)[C@H](O)[C@@H](O)[C@@H]1O [TG-017] | 1.54 | 1.29 | 2.55 | 5.9 | 2.29 | 2.48 |  |  |  |  |  |  |
| OC[C@H]1O[C@@H](OCCCCc2ccc(OCc3ccc(C(F)(F)F)cc3)cc2)[C@H](O)[C@@H](O)[C@@H]1O [TG-026] | 1.44 | 6.85 | 7.92 | 8.13 | 7.92 | 8.16 |  |  |  |  |  |  |
| COc1ccc(CCCCO[C@@H]2O[C@H](CO)[C@H](O)[C@H](O)[C@H]2O)cc1 [TG-030] | 0.43 | 0.32 | 0.09 | 0.19 | 0.19 | 0.37 |  |  |  |  |  |  |
